Results reported in patent US10538512B2, “Aminoacylindazole immunomodulators for treatment of autoimmune diseases” (The Rockefeller University, priority 2016, dated 2020).

molecular target: T1, Human FXIIa (Homo sapiens, UniProt P00748); test: Factor XIIa (FXIIa) inhibitory activity, chromogenic substrate assay; type: biochemical; conditions: Human FXIIa 12.5 nM, Pefachrome XIIa 400 μM, 10 min preincubation
T1 construct: active coagulation factor XII (FXIIa); purchased Enzyme Research Labs
T1 sequence (P00748 373-615 limits assumed): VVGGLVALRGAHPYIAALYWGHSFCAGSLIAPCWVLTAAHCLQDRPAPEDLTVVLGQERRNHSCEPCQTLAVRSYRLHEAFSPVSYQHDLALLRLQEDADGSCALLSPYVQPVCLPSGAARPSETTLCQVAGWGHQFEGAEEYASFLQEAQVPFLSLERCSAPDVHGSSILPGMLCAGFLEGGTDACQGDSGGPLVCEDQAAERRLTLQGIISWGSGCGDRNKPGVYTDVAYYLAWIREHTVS
T1 sequence (P00748 20-372 partner limits assumed): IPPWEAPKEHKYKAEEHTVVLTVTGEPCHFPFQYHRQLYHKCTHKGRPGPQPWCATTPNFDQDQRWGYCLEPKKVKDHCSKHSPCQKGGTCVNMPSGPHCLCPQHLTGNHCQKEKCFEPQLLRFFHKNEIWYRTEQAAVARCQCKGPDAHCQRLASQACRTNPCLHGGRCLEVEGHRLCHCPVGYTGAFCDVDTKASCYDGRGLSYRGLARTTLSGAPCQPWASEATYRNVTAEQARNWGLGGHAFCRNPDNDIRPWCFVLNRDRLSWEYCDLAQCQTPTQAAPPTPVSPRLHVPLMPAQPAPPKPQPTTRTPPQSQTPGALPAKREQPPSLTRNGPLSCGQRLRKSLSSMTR
Procedure: Factor XIIa (FXIIa) Inhibitory Activity:
In a 96-well clear bottom plate, 80 μl of assay buffer was added to each well. Assay buffer consists of 0.5× Hank's Balanced Salt Solution (Invitrogen), buffered with 25 mM HEPES pH 7.4 (Invitrogen) and 0.5× Tris-buffered saline with Tween-20 0.05% (Santa Cruz Biotechnology). Test compounds were first dissolved in DMSO (Sigma) and then 4 μl were added to test wells containing assay buffer. Serial dilutions using an automated multi-channel pipette were used to generate a concentration range of approximately 1-100 μM. […] 80 μl of this enzyme solution was added to the assay wells. The enzyme/compound mixtures were incubated for 10 minutes at room temperature. Chromogenic substrate (Pefachrome XIIa; Enzyme Research Labs) was added to assay wells at a final concentration of 400 μM. The assay plate was spun for 1 minute at 1500 g and then read at 37° C. in a SpectraMax M2 plate reader (λ=405 nm). Activity was quantified as the rate of change in absorbance, which corresponds to the rate of substrate cleavage.

Row | IC50 [µM] | Compound
1 | > 80 | Nc1nn(C(=O)[C@H]2CCNc3ccc(Cl)cc32)c2c1C[C@@H](O)CC2 (single isomer, unassigned) [Example 146, ((5S*)-3-amino-5-hydroxy-4,5,6,7-tetrahydroindazol-1-yl)((4S*)-6-chloro-1,2,3,4-tetrahydroquinolin-4-yl)methanone]
2 | 33 | Nc1c2c(nn1C(=O)[C@@H]1CCNc3ccc(Cl)cc31)CC[C@@H](O)C2 (single isomer, unassigned) [Example 147, ((5R*)-3-amino-5-hydroxy-4,5,6,7-tetrahydroindazol-2-yl)((4R*)-6-chloro-1,2,3,4-tetrahydroquinolin-4-yl)methanone]
3 | > 40 | Nc1nn(C(=O)[C@@H]2CCNc3ccc(Cl)cc32)c2c1C[C@H](O)CC2 (single isomer, unassigned) [Example 149, ((5R*)-3-amino-5-hydroxy-4,5,6,7-tetrahydroindazol-1-yl)((4R*)-6-chloro-1,2,3,4-tetrahydroquinolin-4-yl)methanone]
4 | 23 | Nc1nn(C(=O)[C@H]2CCNc3ccc(Cl)cc32)c2c1C[C@H](O)CC2 (single isomer, unassigned) [Example 150, ((5R*)-3-amino-5-hydroxy-4,5,6,7-tetrahydroindazol-1-yl)((4S*)-6-chloro-1,2,3,4-tetrahydroquinolin-4-yl)methanone]
5 | > 80 | Nc1c2c(nn1C(=O)C1CCNc3ccc(F)cc31)CCC(F)(F)C2 (single isomer, unassigned) [Example 174, (R*)-(3-amino-5,5-difluoro-4,5,6,7-tetrahydroindazol-2-yl)(6-fluoro-1,2,3,4-tetrahydroquinolin-4-yl)methanone]
6 | > 100 | CO[C@H]1CCc2nn(C(=O)[C@@H]3CCNc4ccc(F)cc43)c(N)c2C1 (single isomer, unassigned) [Example 176, ((5S*)-3-amino-5-methoxy-4,5,6,7-tetrahydroindazol-2-yl)((4R*)-6-fluoro-1,2,3,4-tetrahydroquinolin-4-yl)methanone]
7 | 28 | CO[C@@H]1CCc2nn(C(=O)[C@H]3CCNc4ccc(F)cc43)c(N)c2C1 (single isomer, unassigned) [Example 179, ((5R*)-3-amino-5-methoxy-4,5,6,7-tetrahydroindazol-2-yl)((4S*)-6-fluoro-1,2,3,4-tetrahydroquinolin-4-yl)methanone]
8 | > 100 | Nc1c2c(nn1C(=O)[C@@H]1CCNc3ccc(F)cc31)C[C@@H](O)CC2 (single isomer, unassigned) [Example 182, ((6S*)-3-amino-6-hydroxy-4,5,6,7-tetrahydroindazol-2-yl)((4R*)-6-fluoro-1,2,3,4-tetrahydroquinolin-4-yl)methanone]
9 | > 100 | Nc1c2c(nn1C(=O)[C@@H]1CCNc3ccc(F)cc31)C[C@H](O)CC2 (single isomer, unassigned) [Example 184, ((6R*)-3-amino-6-hydroxy-4,5,6,7-tetrahydroindazol-2-yl)((4R*)-6-fluoro-1,2,3,4-tetrahydroquinolin-4-yl)methanone]
10 | 2.5 | Nc1c2c(nn1C(=O)C1CCNc3ccc(F)cc31)CCC(NC(=O)OCc1ccccc1)C2 (single isomer, unassigned) [Example 186, benzyl (5R*)-3-amino-2-(6-fluoro-1,2,3,4-tetrahydroquinoline-4-carbonyl)-4,5,6,7-tetrahydro-2H-indazol-5-ylcarbamate]
11 | > 55 | Nc1nn(C(=O)C2CCNc3ccc(F)cc32)c2c1CC(NC(=O)OCc1ccccc1)CC2 (single isomer, unassigned) [Example 191, benzyl N-[(5S*)-3-amino-1-[(6-fluoro-1,2,3,4-tetrahydroquinolin-4-yl)carbonyl]-4,5,6,7-tetrahydro-1H-indazol-5-yl]carbamate]
12 | 7 | Cc1cccc2c1NCCC2C(=O)n1nc2c(c1N)C=CCC2 (single isomer, unassigned) [Example 194, (R*)-(3-amino-6,7-dihydroindazol-2-yl)(8-methyl-1,2,3,4-tetrahydroquinolin-4-yl)methanone]
13 | 0.04 | Cc1cccc2c1NCCC2C(=O)n1nc2c(c1N)C=CCC2 (single isomer, unassigned) [Example 195, (S*)-(3-amino-6,7-dihydroindazol-2-yl)(8-methyl-1,2,3,4-tetrahydroquinolin-4-yl)methanone]
14 | 0.04 | Cc1cccc2c1NCC[C@@H]2C(=O)n1nc2c(c1N)CC[C@@H](O)C2 (single isomer, unassigned) [Example 199, ((6R*)-3-amino-6-hydroxy-4,5,6,7-tetrahydroindazol-2-yl)((4S*)-8-methyl-1,2,3,4-tetrahydroquinolin-4-yl)methanone]
15 | 3.3 | Cc1cccc2c1NCC[C@H]2C(=O)n1nc2c(c1N)CC[C@@H](O)C2 (single isomer, unassigned) [Example 200, ((6R*)-3-amino-6-hydroxy-4,5,6,7-tetrahydroindazol-2-yl)((4R*)-8-methyl-1,2,3,4-tetrahydroquinolin-4-yl)methanone]
16 | > 150 | Cc1cccc2c1NCC[C@@H]2C(=O)n1nc(N)c2c1C[C@H](O)CC2 (single isomer, unassigned) [Example 201, ((6R*)-3-amino-6-hydroxy-4,5,6,7-tetrahydroindazol-1-yl)((4S*)-8-methyl-1,2,3,4-tetrahydroquinolin-4-yl)methanone]
17 | > 175 | Cc1cccc2c1NCC[C@H]2C(=O)n1nc(N)c2c1C[C@H](O)CC2 (single isomer, unassigned) [Example 202, ((6R*)-3-amino-6-hydroxy-4,5,6,7-tetrahydroindazol-1-yl)((4R*)-8-methyl-1,2,3,4-tetrahydroquinolin-4-yl)methanone]
18 | 0.04 | Nc1c2c(nn1C(=O)[C@H]1CCNc3c(Cl)cccc31)CC[C@@H](O)C2 (single isomer, unassigned) [Example 204, ((5R*)-3-amino-5-hydroxy-4,5,6,7-tetrahydroindazol-2-yl)((4S*)-8-chloro-1,2,3,4-tetrahydroquinolin-4-yl)methanone]
19 | > 100 | Nc1nn(C(=O)C2CCNc3c(Cl)cccc32)c2c1CC(O)CC2 (single isomer, unassigned) [Example 205, ((5R*)-3-amino-5-hydroxy-4,5,6,7-tetrahydroindazol-1-yl)(8-chloro-1,2,3,4-tetrahydroquinolin-4-yl)methanone]
20 | 2.8 | Nc1c2c(nn1C(=O)[C@@H]1CCNc3c(Cl)cccc31)C[C@@H](O)CC2 (single isomer, unassigned) [Example 206, ((6S*)-3-amino-6-hydroxy-4,5,6,7-tetrahydroindazol-2-yl)((4R*)-8-chloro-1,2,3,4-tetrahydroquinolin-4-yl)methanone]
21 | 0.16 | Nc1c2c(nn1C(=O)[C@H]1CCNc3c(Cl)cccc31)C[C@@H](O)CC2 (single isomer, unassigned) [Example 207, ((6S*)-3-amino-6-hydroxy-4,5,6,7-tetrahydroindazol-2-yl)((4S*)-8-chloro-1,2,3,4-tetrahydroquinolin-4-yl)methanone]
22 | > 100 | Nc1nn(C(=O)C2CCNc3c(Cl)cccc32)c2c1CCC(O)C2 (single isomer, unassigned) [Example 208, ((6S*)-3-amino-6-hydroxy-4,5,6,7-tetrahydroindazol-1-yl)(8-chloro-1,2,3,4-tetrahydroquinolin-4-yl)methanone]
23 | > 100 | Nc1nn(C(=O)[C@H]2CCNc3c(Cl)cccc32)c2c1CC[C@@H](O)C2 (single isomer, unassigned) [Example 211, ((6R*)-3-amino-6-hydroxy-4,5,6,7-tetrahydroindazol-1-yl)((4S*)-8-chloro-1,2,3,4-tetrahydroquinolin-4-yl)methanone]
24 | > 100 | Nc1nn(C(=O)[C@@H]2CCNc3c(Cl)cccc32)c2c1CC[C@@H](O)C2 (single isomer, unassigned) [Example 212, ((6R*)-3-amino-6-hydroxy-4,5,6,7-tetrahydroindazol-1-yl)((4R*)-8-chloro-1,2,3,4-tetrahydroquinolin-4-yl)methanone]
25 | 35 | Cc1cccc2c1NCC[C@H]2C(=O)n1nc2c(c1N)C[C@H](O)CC2 (single isomer, unassigned) [Example 217, ((5R*)-3-amino-5-hydroxy-4,5,6,7-tetrahydro-2H-indazol-2-yl)((4R*)-8-methyl-1,2,3,4-tetrahydroquinolin-4-yl)methanone]
26 | > 80 | Nc1c2c(nn1C(=O)[C@@H]1CCNc3ccc(F)cc31)CC[C@@H](N)C2 (stereo in doubt) [Example 188, ((5R*)-3,5-diamino-4,5,6,7-tetrahydroindazol-2-yl)((4R*)-6-fluoro-1,2,3,4-tetrahydroquinolin-4-yl)methanone]
